The test has as its target T1, Recombinant human LTC4 synthase (Homo sapiens, UniProt Q16873).
T1 construct: made in house; host or cells: Pichia pastoris ('Piccia pastoralis' [sic])
T1 sequence (Q16873 1-150): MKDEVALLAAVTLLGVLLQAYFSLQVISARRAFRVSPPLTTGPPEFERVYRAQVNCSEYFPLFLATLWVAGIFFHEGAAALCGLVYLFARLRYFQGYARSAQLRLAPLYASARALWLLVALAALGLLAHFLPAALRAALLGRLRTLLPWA
The experiment in a line: LTC4 synthase in vitro assay (LTA4 to LTC4, HTRF detection). It is filed as biochemical. An outline of the steps: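 Purified recombinant human LTC4 synthase expressed in Pichia (0.5 μg/mL total protein) was preincubated with inhibitor at 10 μM final for 10 min at room temperature in PBS pH 7.4 with 5 mM GSH. LTA4 was then added at 2.5 μM final, and after 5 min at room temperature LTC4 was detected by HTRF.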

In the case of `COc1ccc(C(=O)c2ccc(C(=O)c3ccc(N(C)c4ccc(Cl)cc4)cn3)cc2C(=O)O)c(OC)c1` [5:10, 5-{5-[(4-Chlorophenyl)(methyl)amino]picolinoyl}-2-(2,4-dimethoxybenzoyl)-benzoic acid], the IC50 stood at 68 nM.

For the compound `CN(c1ccc(Cl)cc1)c1ccc(C(=O)c2ccc(C(=O)c3ccc(C(F)(F)F)cc3)c(C(=O)O)c2)nc1` [5:11], the IC50 came out at 216 nM.

Take `CN(c1ccc(Cl)cc1)c1ccc(C(=O)c2ccc(C(=O)c3ccc([N+](=O)[O-])cc3)c(C(=O)O)c2)nc1` [5:12]: the IC50 was 202 nM.

Consider `CN(c1ccc(Cl)cc1)c1ccc(C(=O)c2ccc(C(=O)C(C)(C)C)c(C(=O)O)c2)nc1` [5:13, 5-{5-[(4-Chlorophenyl)(methyl)amino]picolinoyl}-2-(2,2-dimethylpropionyl)-benzoic acid], for which the IC50 came to 491 nM.

Take `CCOc1ccc(C(=O)c2ccc(C(=O)c3ccc(N(C)c4ccc(Cl)cc4)cn3)cc2C(=O)O)cc1OCC` [5:14, 5-{5-[(4-Chlorophenyl)(methyl)amino]picolinoyl}-2-(3,4-diethoxybenzoyl)-benzoic acid]: the half-inhibitory concentration (IC50) turned out to be 77 nM.

For the compound `CN(c1ccc(Cl)cc1)c1ccc(C(=O)c2ccc(C(=O)c3ccc(F)cc3)c(C(=O)O)c2)nc1` [5:15, 5-{5-[(4-Chlorophenyl)(methyl)amino]picolinoyl}-2-(4-fluorobenzoyl)benzoic acid], the IC50 stood at 126 nM.

As to `CN(c1ccc(Cl)cc1)c1ccc(C(=O)c2ccc(C(=O)Cc3ccccc3)c(C(=O)O)c2)nc1` [5:16, 5-{5-[(4-Chlorophenyl)(methyl)amino]picolinoyl}-2-phenylacetylbenzoic acid], the IC50 stood at 257 nM.

`CCCCCCC(=O)c1ccc(C(=O)c2ccc(N(C)c3ccc(Cl)cc3)cn2)cc1C(=O)O` [5:17, 5-{5-[(4-Chlorophenyl)(methyl)amino]picolinoyl}-2-heptanoylbenzoic acid]: the IC50 is 90 nM.

Take `CN(c1ccc(Cl)cc1)c1ccc(C(=O)c2ccc(C(=O)C3CCCCC3)c(C(=O)O)c2)nc1` [5:18, 5-{5-[(4-Chlorophenyl)(methyl)amino]picolinoyl}-2-cyclohexylcarbonylbenzoic acid]: the half-maximal inhibitory concentration (IC50) stood at 246 nM.

Take `CN(c1ccc(Cl)cc1)c1ccc(C(=O)c2ccc(C(=O)C3(c4ccccc4)CC3)c(C(=O)O)c2)nc1` [5:19]: the IC50 came to 32 nM.

For the compound `CN(c1ccc(Cl)cc1)c1ccc(C(=O)c2ccc(C(=O)c3cccs3)c(C(=O)O)c2)nc1` [5:20, 5-{5-[(4-Chlorophenyl)(methyl)amino]picolinoyl}-2-(2-thienylcarbonyl)benzoic acid], the IC50 amounted to 104 nM.

Consider `Cc1ccc(N(C)c2ccc(C(=O)c3ccc(C(=O)c4ccccc4)c(C(=O)O)c3)nc2)cc1` [5:21], for which the 50% inhibitory concentration (IC50) was found to be 250 nM.

On to `Cc1cc(Cl)ccc1N(C)c1ccc(C(=O)c2ccc(C(=O)c3ccccc3)c(C(=O)O)c2)nc1` [5:22, 2-Benzoyl-5-{5-[(4-chloro-2-methylphenyl)(methyl)amino]picolinoyl}benzoic acid], for which the IC50 turned out to be 442 nM.

Consider `CCc1ccc(N(C)c2ccc(C(=O)c3ccc(C(=O)c4ccccc4)c(C(=O)O)c3)nc2)cc1` [5:23], for which the IC50 is 184 nM.

For the compound `CN(c1ccc(Cl)cc1)c1ccc(C(=O)c2ccc(C(=O)c3ccc4c(c3)OCO4)c(C(=O)O)c2)nc1` [5:24, 5-{5-[(4-Chlorophenyl)(methyl)amino]picolinoyl}-2-(3,4-methylenedioxy-benzoyl)benzoic acid], the concentration for half-maximal inhibition (IC50) stood at 77 nM.

Take `CN(c1ccc(Cl)cc1)c1ccc(C(=O)c2ccc(C(=O)C3CCCO3)c(C(=O)O)c2)nc1` (stereo not drawn) [5:25, 5-{5-[(4-Chlorophenyl)(methyl)amino]picolinoyl}-2-tetrahydrofuran-2-carbonylbenzoic acid]: the IC50 came out at 860 nM.

Take `CN(c1ccc(Cl)cc1)c1ccc(C(=O)c2ccc(C(=O)c3ccc4c(c3)OCCO4)c(C(=O)O)c2)nc1` [5:26]: the IC50 came to 27 nM.

For the compound `CN(c1ccc(Cl)cc1)c1ccc(C(=O)c2ccc(C(=O)c3cccc(C(F)(F)F)c3)c(C(=O)O)c2)nc1` [5:27], the half-maximal inhibitory concentration (IC50) came to 54 nM.
